No end group written: not given here.
The sequences below were run against T1, angiotensin converting enzyme (Oryctolagus cuniculus, UniProt P12822) (assay: Determination of angiotensin converting enzyme inhibitory activity (method of Cushmann et al., hippuryl-L-histidine-L-leucine substrate)). Settings: rabbit lung enzyme, 37° C., 30 minutes, pH 8.3; peptides isolated from Bacillus stearothermophilus hydrolysate; read-out: IC50 (concentration of the sample showing 50% inhibition) (converted).
T1 construct: The supernatant was dialyzed against the same buffer to remove low-molecular weight substances resulting in an angiotensin converting enzyme solution; tissue Sigma Co; host or cells: rabbit lung (acetone-dried preparation)
T1 sequence (P12822 34-1310): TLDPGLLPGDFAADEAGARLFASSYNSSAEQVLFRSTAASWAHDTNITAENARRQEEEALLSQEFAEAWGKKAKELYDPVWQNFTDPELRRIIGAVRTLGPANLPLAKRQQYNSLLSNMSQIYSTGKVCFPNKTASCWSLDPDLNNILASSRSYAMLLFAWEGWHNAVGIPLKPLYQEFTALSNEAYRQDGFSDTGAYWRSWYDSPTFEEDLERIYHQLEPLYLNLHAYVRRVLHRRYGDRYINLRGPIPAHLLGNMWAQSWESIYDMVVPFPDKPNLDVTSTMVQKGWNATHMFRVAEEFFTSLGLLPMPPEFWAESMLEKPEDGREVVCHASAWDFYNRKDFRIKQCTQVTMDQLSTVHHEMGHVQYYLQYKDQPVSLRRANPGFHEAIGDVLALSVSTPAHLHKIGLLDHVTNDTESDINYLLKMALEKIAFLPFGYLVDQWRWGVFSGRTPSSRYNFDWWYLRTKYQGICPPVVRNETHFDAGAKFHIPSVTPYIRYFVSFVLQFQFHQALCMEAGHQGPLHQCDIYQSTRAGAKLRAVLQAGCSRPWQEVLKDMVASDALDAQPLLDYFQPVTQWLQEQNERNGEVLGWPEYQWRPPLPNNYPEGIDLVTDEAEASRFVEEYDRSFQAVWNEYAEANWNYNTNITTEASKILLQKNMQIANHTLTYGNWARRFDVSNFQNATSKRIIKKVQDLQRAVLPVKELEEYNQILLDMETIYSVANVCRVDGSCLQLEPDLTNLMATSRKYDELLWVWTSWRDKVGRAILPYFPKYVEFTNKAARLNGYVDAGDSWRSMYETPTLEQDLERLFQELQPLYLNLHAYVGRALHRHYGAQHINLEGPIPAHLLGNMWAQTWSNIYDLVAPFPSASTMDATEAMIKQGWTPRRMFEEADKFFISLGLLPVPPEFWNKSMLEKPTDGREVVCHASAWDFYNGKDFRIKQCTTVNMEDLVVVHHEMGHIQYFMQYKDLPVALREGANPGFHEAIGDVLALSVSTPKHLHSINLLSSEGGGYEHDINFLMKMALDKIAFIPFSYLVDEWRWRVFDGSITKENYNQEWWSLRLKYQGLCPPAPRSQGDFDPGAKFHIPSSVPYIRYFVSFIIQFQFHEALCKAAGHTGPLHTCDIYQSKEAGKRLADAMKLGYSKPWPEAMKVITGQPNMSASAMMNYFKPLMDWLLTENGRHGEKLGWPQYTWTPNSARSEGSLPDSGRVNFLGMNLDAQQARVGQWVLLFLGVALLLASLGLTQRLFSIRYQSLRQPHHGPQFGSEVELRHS
Format: biochemical
Protocol: Angiotensin converting enzyme inhibitory activity during isolation and purification was determined using the method of Cushmann et al., Biochem. Pharacol., Vol. 20, pp. 1637-1648 (1971).
A commercially available acetone-dried preparation of rabbit lungs (product of Sigma Co.) was dissolved in a 50 mM potassium phosphate buffer solution (pH=8.3) at 4° C. and the solution was centrifuged at 37,000×g for 30 minutes. The supernatant was dialyzed against the same buffer to remove low-molecular weight substances resulting in an angiotensin converting enzyme solution.
Hippuryl-L-histidine-L-leucine (product of Peptide Kenkyusho) was added to a 0.1M potassium phosphate buffer solution (pH=8.3) containing 0.3M NaCl to prepare a 2.5 mM enzyme substrate solution. The above-prepared angiotensin converting enzyme, water and a test sample were added to the substrate solution in a final volume of 0.25 ml and the system was allowed to react at 37° C. for 30 minutes. Then, 0.25 ml of 1N HCl was added thereto to stop the reaction and 1.5 ml of ethyl acetate was added to extract released hippuric acid. A 1 ml aliquot of the ethyl acetate extract was evaporated to dryness. To the residue was added 1 ml of distilled water and the absorbance at 228 nm was measured to determine the amount of hippuric acid.
Percent inhibition was calculated from the above-measured absorbance (A) and an absorbance of a blank (B) according to the following equation: [formula] The concentration of the sample showing 50% inhibition was taken as IC50.
Work on “GKMVKVVSWY [(b), Gly-Lys-Met-Val-Lys-Val-Val-Ser-Trp-Tyr]” yielded an IC50 of 6.69 µM.
“GKEIIVKAER [(a), Gly-Lys-Glu-Ile-Ile-Val-Lys-Ala-Glu-Arg]” showed an IC50 of 65.7 µM.
Work on “AYIASKGL [(c), Ala-Tyr-Ile-Ala-Ser-Lys-Gly-Leu]” yielded an IC50 of 35 µM.
